Laboratory results as given in ChEMBL document CHEMBL1157539, “Thousands of chemical starting points for antimalarial lead identification” (Nature, 2010).

Tested on: Plasmodium falciparum
Assay: GSK_TCMDC: Inhibition of Plasmodium falciparum 3D7 in whole erythrocytes, using parasite LDH activity as an index of growth.
Assay type: functional, organism-based

| SMILES | XC50 (Plasmodium falciparum, 3D7) | XC50 |
| --- | --- | --- |
| NCC1CCCN1Cc1cccc(-c2ccc(-c3nc4cc(C(F)(F)F)ccc4[nH]3)cc2)c1 (stereo not drawn) | 778 nM | – |
| Cc1cc(=O)[nH]c(-n2nc(C)cc2NC(=O)C(c2ccccc2)c2ccccc2)n1 | 839 nM | – |
| O=C(/C=C/c1ccc(Cl)c(Cl)c1)N1CCC(CN2CCC(Cc3cc4ccccc4[nH]3)CC2)CC1 | 630 nM | – |
| COc1cc2c(cc1COc1ccccc1)CCN1Cc3cc(OC)c(OC)cc3CC21 (stereo not drawn) | 150 nM | – |
| CCCc1cc(Cc2cnc(N)nc2N)cc(CCC)c1OCCCCC(=O)O | 195 nM | – |
| COc1cccc(NC(=O)NC2CCN(c3ccnc(Nc4ccc(F)cc4)n3)C2)c1 (stereo not drawn) | 570 nM | – |
| O=[N+]([O-])c1cccc(-c2nc3cc(C4=NC5CCCCC5N4)ccc3[nH]2)c1 (stereo not drawn) | 195 nM | – |
| CNCCc1c(O)ccc2ccccc12 | 804 nM | – |
| CC(C)COc1ccc(Cl)cc1Cc1nc(-c2nc3ccc(CN(C)C)cc3[nH]2)co1 | 711 nM | – |
| CC(Cc1ccc(SC(C)C)cc1)NCC(O)c1cccc(Cl)c1 (stereo not drawn) | 827 nM | – |
| CN(C)CC(O)C(c1ccccc1)c1ccc(Cl)cc1 (stereo not drawn) | 48.4 nM | – |
| COc1cc(NCCCNC(=O)c2cn(Cc3ccccc3)c3ccccc23)nc2ccccc12 | 868 nM | – |
| CC(=O)Nc1ccc(OCCCCN(Cc2ccccc2C(F)(F)F)c2ccc(C(F)(F)F)c(C#N)c2)c(Cl)c1 | 545 nM | – |
| N=C(N)Nc1ccc(OCCCCCOc2ccc(NC(=N)N)cc2)cc1 | 193 nM | – |
| Cc1cc(OCC2CCN(c3ccc(C(=O)NC4CC4)cn3)CC2)ccc1F | 868 nM | – |
| C=CCc1cccc(C)c1OCCCON1C(=N)N=C(N)NC1(C)C | 3.2 nM | – |
| FC(F)(F)c1ccc2[nH]c(-c3ccc(-c4cccc(CNCCc5ccncc5)c4)s3)nc2c1 | 117 nM | – |
| Cc1cccc2nc(-c3cccc(-c4cccc(CNCc5ccccc5)c4)c3)[nH]c12 | 393 nM | – |
| COc1cc2nc(NCCCOC(C)C)n3nc(-c4ccccc4)nc3c2cc1OC | 196 nM | – |
| N#Cc1cccc(Nc2nccc(NCC(O)c3cccc(C(F)(F)F)c3)n2)c1 (stereo not drawn) | 553 nM | – |
| CCOC(=O)C1CCN(CCCNC(=O)/C(=C/C=C/c2cc3cc(Cl)c(Cl)cc3[nH]2)OC)CC1 | 1040 nM | – |
| CC1CN(c2ncc(-c3ccc(CNC4Cc5ccccc5C4)cc3)cn2)CC(C)N1 (stereo not drawn) | 1160 nM | – |
| CCNc1cc(C(=O)N[C@@H](Cc2ccccc2)[C@H](O)CNC2(CC)CCCCC2)cc(N2CCCCS2(=O)=O)c1 | 265 nM | – |
| O=C(Cc1cccnc1)N(Cc1ccc(-c2ccc(CNCc3cccnc3)cn2)cc1)C1CCN(Cc2ccccc2)CC1 | 803 nM | – |
| Clc1ccc(CNc2nc(NCCc3c[nH]cn3)nc(Nc3ccc4c(c3)OCO4)n2)cc1 | 955 nM | – |

| SMILES | XC50 (Plasmodium falciparum, 3D7) | XC50 |
| --- | --- | --- |
| Cc1[nH]c(C)c(-c2ccc(OCc3ccc(F)cc3)cc2)c(=O)c1Br | 77.2 nM | – |
| FC(F)(F)c1ccc2[nH]c(-c3ccc(-c4ccc(CN5CCN(c6ccncc6)CC5)cc4)s3)nc2c1 | 153 nM | – |
| CCn1c(C)cc(C=C2SC(=Nc3ccccc3)NC2=O)c1C | 680 nM | – |
| CCc1ccc(NC(=O)c2ccc(CN3CCCN(Cc4ccc(C)s4)CC3)cc2)cc1 | 1150 nM | – |
| Cc1cc(NC(=O)Nc2ccc(N(C)C)cc2)c2cc(Cl)ccc2n1 | 857 nM | – |
| COc1cc2c(cc1OC)CC(NCCCCCCNCCc1ccc(Cl)cc1)CC2 (stereo not drawn) | 738 nM | – |
| CC1CCN(Cc2c(O)ccc3c(CN4CCC(C)CC4)c(O)ccc23)CC1 | 133 nM | – |
| CC(Cc1ccc(OCCCCOc2ccccc2)cc1)NCCc1ccccc1Cl (stereo not drawn) | 175 nM | – |
| OC(CNc1cccc(Cl)c1)Cn1c2ccc(Cl)cc2c2cc(Cl)ccc21 (stereo not drawn) | 958 nM | – |
| O=C(c1cc(C(F)(F)F)cc(C(F)(F)F)c1)N1CCC(CCN2CCC3(CC2)C(=O)NCN3c2ccccc2)CC1Cc1ccc(Cl)c(Cl)c1 (stereo not drawn) | 656 nM | – |
| Cc1c(C)c2c(c(C)c1O)CC[C@](C)(C(=O)NC1CCC(CN3CCC(c4c[nH]c5ccccc45)CC3)CC1)O2 (stereo partly drawn) | 881 nM | 1120 nM |
| CN(C)CCN(Cc1ccccc1-c1ccc(CNCCc2ccccc2)cc1)C(=O)NC1CCCCC1 | 906 nM | – |
| COc1ccc(OCC(O)CN(Cc2ccccc2OC)C(=O)Nc2ccc(Br)cc2)cc1 (stereo not drawn) | 748 nM | – |
| O=C(/C=C/c1ccc(Cl)c(Cl)c1)NCCCCCN1CCC(C(=O)Nc2ccc(Cl)c(Cl)c2)CC1 | 637 nM | – |
| Fc1ccc2[nH]c(-c3cccc(-c4ccc(CN5CCCCC5)cc4)c3)nc2c1 | 163 nM | – |
| CCCC(C)Nc1nc(C)cc(NCCC(=O)Nc2ccc(OC)cc2)n1 (stereo not drawn) | 1380 nM | – |
| COc1cccc(C(=O)NCCc2cccc(Cl)c2)c1Oc1ccccc1 | 844 nM | – |
| CN1CCC(N(C)c2nccc(N3CCN(Cc4cncn4Cc4ccccc4)CC3)n2)CC1 | 704 nM | – |
| COCC(=O)N(Cc1cccc(-c2ccc(CNCCc3ccccc3)cc2)c1)C1CCN(Cc2ccccc2)CC1 | 1100 nM | – |
| COc1cc2c(cc1OC)CN(CCc1ccc(NC(=O)c3cc4cc(Cl)ccc4[nH]3)cc1)CC2 | 1020 nM | – |
| Fc1ccc2[nH]c(-c3cccc(-c4cccc(CNCC5CCCO5)c4)c3)nc2c1 (stereo not drawn) | 513 nM | – |
| CCC(=O)c1ccc(-c2ccc(=O)n(CC(=O)N(CCN(CC)CC)Cc3ccc(-c4ccc(C(F)(F)F)cc4)cc3)n2)cc1 | 715 nM | – |
| Cc1c(C(=O)Nc2cc(Sc3ccc(F)cc3)cc([N+](=O)[O-])c2)sc2ncn(Cc3ccccc3F)c(=O)c12 | 798 nM | – |
| COc1cccc(NC(=O)c2ccc(NCCCN3CCC(C)CC3)c([N+](=O)[O-])c2)c1 | 770 nM | – |
| COc1ccc2nccc([C@@H](O)CN3CCC(NCCOc4ccccc4C#N)CC3)c2c1 | 398 nM | – |

| SMILES | XC50 (Plasmodium falciparum, 3D7) | XC50 |
| --- | --- | --- |
| CCCCCCCN(CCCCCCC)CCCC(=O)Nc1ccnc2ccc(OC)cc12 | 154 nM | – |
| O=C(/C=C/c1ccc(Cl)c(Cl)c1)NCCCCCN1CCC(NC(=O)NC2CCCC2)CC1 | 631 nM | – |
| Nc1nc(Nc2cccc(Cl)c2)ncc1C(=O)NCc1ccncc1 | 832 nM | – |
| O=C(N[C@@H](CC1CCCCC1)C(=O)NCCN1CCOCC1)c1ccc(O)c(-c2ccc(Cl)c(Cl)c2)c1 | 181 nM | – |
| NCC1CCCN1Cc1cccc(-c2ccc(-c3nc4ccccc4[nH]3)s2)c1 (stereo not drawn) | 1040 nM | – |
| CC(C)(Cc1ccc(Cl)cc1)NCCCCCCNCCc1ccc(O)c(O)c1 | 1200 nM | – |
| COc1ccc2nc(N)nc(C)c2c1 | 927 nM | – |
| c1ccc2[nH]c(-c3ccc(-c4ccc(CN5CCCCC5)cc4)cc3)nc2c1 | 750 nM | – |
| CS(=O)(=O)CCNCc1nc(-c2ccc3c(Nc4ccc(Oc5ccccn5)cc4)ccnc3c2)cs1 | 675 nM | – |
| CCN(CC)CCN1C(=O)c2oc3ccc(F)cc3c(=O)c2C1c1cccc(Cl)c1 (stereo not drawn) | 531 nM | – |
| CS(=O)(=O)c1ccc(CCNCc2ccc(-c3ccc(CN(C(=O)c4cccc(C#N)c4)C4CCN(Cc5ccccc5)CC4)cc3)nc2)cc1 | 977 nM | – |
| Cc1cc(-c2ncc[nH]2)ccc1-c1ccc(C(=O)N2CCc3cc4c(cc32)C2(CCN(C)CC2)CO4)cc1 | 800 nM | – |
| N#Cc1ccc(CN2CCCN(Cc3cccc(NC(=O)c4cc5ccccc5s4)c3)CC2)cc1 | 907 nM | – |
| CCCCCCN1CCC(NCc2cccc(C(F)(F)F)c2)CC1 | 246 nM | – |
| CCCOc1ccc(OCCCON2C(=N)N=C(N)NC2(C)C)cc1 | 3.2 nM | – |
| C(=NN=c1cc[nH]c2ccccc12)c1ccncc1 | 743 nM | – |
| CCN(CC)CCOc1ccc(C(O)(C#CC(O)(c2ccccc2)c2ccc(OCCN(CC)CC)cc2)c2ccccc2)cc1 (stereo not drawn) | 1310 nM | – |
| CC1CCCCN1S(=O)(=O)c1ccc(NC(=O)c2cc(-c3ccccc3O)n[nH]2)cc1 (stereo not drawn) | 756 nM | – |
| CC(C)N1CCN(C(=O)c2ccc(CNCCCN3CCN(c4ccccc4C(F)(F)F)CC3)s2)CC1 | 837 nM | – |
| O=C(/C=C/c1ccc(Cl)c(Cl)c1)NCCCCCN1CCC(CCNC(=O)/C=C/c2ccccc2F)CC1 | 871 nM | – |
| CC(C)(C)SC1SC(SC(C)(C)C)C(OC(=O)c2ccccc2)C(OC(=O)c2ccccc2)C1OC(=O)c1ccccc1 (stereo not drawn) | 937 nM | – |
| CCCC1N=C(N)N=C(N)N1c1cccc([N+](=O)[O-])c1 (stereo not drawn) | 760 nM | – |
| O=C(NC1CCC(CN2CCC(c3c[nH]c4ccccc34)CC2)CC1)c1cc2cccc([N+](=O)[O-])c2[nH]1 (stereo not drawn) | 341 nM | – |
| CCCCCCNC(=O)C1Cc2c([nH]c3ccc(Br)cc23)C2(CCN(Cc3ccccc3)CC2)N1 (stereo not drawn) | 722 nM | – |
| CCN(CC)CCN(Cc1ccc(-c2ccc(Cl)cc2)cc1)C(=O)Cn1c(CCc2cccc(F)c2F)nc(=O)c2ccccc21 | 769 nM | – |

| SMILES | XC50 (Plasmodium falciparum, 3D7) | XC50 |
| --- | --- | --- |
| COc1ccc(-c2cccc(NC(=O)c3ccc(Cl)cc3)c2)cc1CN1CCC(O)CC1 | 791 nM | – |
| COc1cc2nc(-c3ccc(Br)cc3)cc(N)c2cc1OC | 173 nM | – |
| O=C(Nc1ccc(CN2CCN(S(=O)(=O)c3cccc(Cl)c3)CC2)cc1)c1cccs1 | 1080 nM | – |
| CN(C)CCN(C)Cc1ccc(-c2ccc(NC(=O)c3ccc(Cl)cc3)cc2)cc1 | 943 nM | – |
| CCOC(=O)c1ccc(NC(=O)Nc2cccc(-c3cccc(-c4nc5cc(F)ccc5[nH]4)c3)c2)cc1 | 94.7 nM | – |
| Clc1cccc(C23N/C(=N\c4nc5ccccc5[nH]4)NC2(c2ccccc2)N/C(=N\c2nc4ccccc4[nH]2)N3)c1 (stereo not drawn) | 519 nM | – |
| Cc1ccc2c(=O)cc(CCc3cccc(F)c3F)n(CC(=O)N(Cc3ccc(-c4ccc(C(F)(F)F)cc4)cc3)C3CCN(C(C)C)CC3)c2n1 | 776 nM | – |
| O=[N+]([O-])c1ccc(/C=N/O)nc1 | 872 nM | – |
| CN(C)c1ccc(CN2CCCCC(NC(=O)c3cc(-c4ccccc4F)cs3)C2)cc1 (stereo not drawn) | 826 nM | – |
| O=C(Nc1ccc([N+](=O)[O-])cc1)Nc1nc2ccc(Cl)cc2s1 | 837 nM | – |
| N#Cc1ccc2c(c1)CN(CCC1CCC(NC(=O)c3cc4cc(OC(F)(F)F)ccc4[nH]3)CC1)CC2 (stereo not drawn) | 777 nM | – |
| Cc1[nH]c(C)c(-c2ccc(OCc3ccc(OC(F)(F)F)cc3)nc2)c(=O)c1Cl | 70.5 nM | – |
| O=C(NCCCCN1CCC(c2ccc3c(c2OCC2COCO2)CCCC3)CC1)c1ccc(-c2ccc(C(F)(F)F)cc2)cc1 (stereo not drawn) | 868 nM | – |
| O=C(Nc1cccc(CN2CCCN(Cc3ccc(O)cc3)CC2)c1)c1ccc(-c2ccccc2)cc1 | 342 nM | – |
| Cc1ccc(F)cc1S(=O)(=O)N1CCCCC(c2ccc(C(F)(F)F)cc2)=N1 | 937 nM | – |
| O=C(/C=C/c1cccc2ccccc12)NCCCCCN1CCC(c2c[nH]c3ccccc23)CC1 | 1140 nM | – |
| Cc1nc(-c2nc(N3CCC(O)CC3)ncc2-c2ccsc2)sc1C | 939 nM | – |
| COc1cc2c(cc1OCCN1CCC(N3CCCCC3)CC1)N(C(=O)/C=C/c1ccccc1OC(F)(F)F)CC2 | 590 nM | – |
| Cc1cc(Br)cnc1CCCCNc1cc(=O)c2ccccc2[nH]1 | 1160 nM | – |
| COc1ccccc1CNc1ccnc(N2CC(Oc3ccc(F)cc3)C2)n1 | 850 nM | – |
| COc1nc(N)ncc1C(=O)NC1CN2CCC1CC2 (stereo not drawn) | 235 nM | – |
| COc1ccc2cc(C(C)NC3CCN(c4cccc(NC(=O)c5ccncc5)c4)CC3)ccc2c1 (stereo not drawn) | 1550 nM | – |
